Patent publication US20230167114A1, “MACROCYCLIC JAK INHIBITOR AND USE THEREOF” (Biopolar Hongye (Guangdong) Pharmaceutical Co., Ltd., priority 2020, published 2023)

How the values were obtained:
Format in all cases: biochemical
JAK2 = JAK2 (Homo sapiens, UniProt O60674); experiment: JAK kinase activity, homogeneous time-resolved fluorescence (JAK2 reaction system); settings: ATP 2 μM, JAK2 protein 0.01 ng/μL
Procedure: (§1) The activity measurement method of JAK kinase was to use homogeneous time-resolved fluorescence technique. The reaction was performed in 384 shallow well plates with a total reaction volume of 10 μL. The mixture of kinase protein, compound, ATP and substrate was carried out in a reaction buffer of 50 mM Hepes (pH7.0), NaN3 0.02%, BSA 0.01%, 0.1 mM orthocanadate, 5 mM MgCl2, and 1 mM DTT. After reacting for 1 hour, antibody capable of recognizing substrate phosphorylation and dye XL-615 and detection buffer (Cisbio) containing EDTA were added to the system. The reaction signal of kinase was detected by PE company's porous plate detector. The parameter settings were excitation light at 320 nm, emission light at 615 nm and 665 nm. The activity of JAK is indirectly reflected by the signal ratio of 665 nm and 615 nm. In the reaction, the background well without enzyme and the total enzyme activity well without compound were set.
(§2) The IC50 value of the compound inhibiting protein was obtained by the formula: Y=100/(1+10^((Log IC50−X)*HillSlope)).
In JAK2 reaction system, the concentration of ATP was 2 μM, and the concentration of JAK2 protein was 0.01 ng/μL.

TYK2 = TYK2 (Homo sapiens, UniProt P29597); experiment: JAK kinase activity, homogeneous time-resolved fluorescence (TYK2 reaction system); settings: ATP 2 μM, TYK2 protein 0.2 ng/μL; read-out: TYK 2 activity
Chain of TYK2 (P29597 whole entry): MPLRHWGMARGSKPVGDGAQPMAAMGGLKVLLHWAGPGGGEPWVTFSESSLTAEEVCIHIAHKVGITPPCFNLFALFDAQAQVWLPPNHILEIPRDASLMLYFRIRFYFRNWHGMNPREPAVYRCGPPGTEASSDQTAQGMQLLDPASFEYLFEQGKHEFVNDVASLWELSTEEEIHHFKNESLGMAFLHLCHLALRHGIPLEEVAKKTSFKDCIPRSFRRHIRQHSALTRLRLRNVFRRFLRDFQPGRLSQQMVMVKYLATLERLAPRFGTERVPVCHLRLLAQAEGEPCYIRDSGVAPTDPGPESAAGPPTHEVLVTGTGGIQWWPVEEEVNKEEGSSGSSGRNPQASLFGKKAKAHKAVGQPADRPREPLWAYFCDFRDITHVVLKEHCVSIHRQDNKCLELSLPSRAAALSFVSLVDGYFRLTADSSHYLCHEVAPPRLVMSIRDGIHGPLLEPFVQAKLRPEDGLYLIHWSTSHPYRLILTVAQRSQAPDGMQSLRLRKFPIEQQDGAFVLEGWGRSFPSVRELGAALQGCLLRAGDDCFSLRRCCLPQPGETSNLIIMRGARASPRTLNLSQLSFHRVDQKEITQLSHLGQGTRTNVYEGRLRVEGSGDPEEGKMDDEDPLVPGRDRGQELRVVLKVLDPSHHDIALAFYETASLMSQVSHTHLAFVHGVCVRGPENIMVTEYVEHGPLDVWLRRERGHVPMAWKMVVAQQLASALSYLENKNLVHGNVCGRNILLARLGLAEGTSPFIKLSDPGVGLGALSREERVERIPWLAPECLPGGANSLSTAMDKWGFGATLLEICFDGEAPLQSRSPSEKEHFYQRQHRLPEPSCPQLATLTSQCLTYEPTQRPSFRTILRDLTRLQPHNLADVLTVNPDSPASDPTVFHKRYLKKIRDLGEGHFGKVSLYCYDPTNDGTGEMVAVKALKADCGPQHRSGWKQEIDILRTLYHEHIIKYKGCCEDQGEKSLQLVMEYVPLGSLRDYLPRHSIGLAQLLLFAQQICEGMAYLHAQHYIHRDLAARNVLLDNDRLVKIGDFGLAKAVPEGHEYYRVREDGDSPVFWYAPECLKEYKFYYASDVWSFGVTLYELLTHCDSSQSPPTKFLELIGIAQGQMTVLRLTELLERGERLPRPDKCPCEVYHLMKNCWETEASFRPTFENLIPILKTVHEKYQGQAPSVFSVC
Procedure: as §1, §2
In TYK2 reaction system, the concentration of ATP was 2 μM and the concentration of TYK2 protein was 0.2 ng/μL.

JAK1 = JAK1 (Homo sapiens, UniProt P23458); experiment: JAK kinase activity, homogeneous time-resolved fluorescence (JAK1 reaction system); settings: ATP 2 μM, JAK1 protein 0.2 ng/μL; read-out: JAK 1 activity
Chain of JAK1 (P23458 whole entry): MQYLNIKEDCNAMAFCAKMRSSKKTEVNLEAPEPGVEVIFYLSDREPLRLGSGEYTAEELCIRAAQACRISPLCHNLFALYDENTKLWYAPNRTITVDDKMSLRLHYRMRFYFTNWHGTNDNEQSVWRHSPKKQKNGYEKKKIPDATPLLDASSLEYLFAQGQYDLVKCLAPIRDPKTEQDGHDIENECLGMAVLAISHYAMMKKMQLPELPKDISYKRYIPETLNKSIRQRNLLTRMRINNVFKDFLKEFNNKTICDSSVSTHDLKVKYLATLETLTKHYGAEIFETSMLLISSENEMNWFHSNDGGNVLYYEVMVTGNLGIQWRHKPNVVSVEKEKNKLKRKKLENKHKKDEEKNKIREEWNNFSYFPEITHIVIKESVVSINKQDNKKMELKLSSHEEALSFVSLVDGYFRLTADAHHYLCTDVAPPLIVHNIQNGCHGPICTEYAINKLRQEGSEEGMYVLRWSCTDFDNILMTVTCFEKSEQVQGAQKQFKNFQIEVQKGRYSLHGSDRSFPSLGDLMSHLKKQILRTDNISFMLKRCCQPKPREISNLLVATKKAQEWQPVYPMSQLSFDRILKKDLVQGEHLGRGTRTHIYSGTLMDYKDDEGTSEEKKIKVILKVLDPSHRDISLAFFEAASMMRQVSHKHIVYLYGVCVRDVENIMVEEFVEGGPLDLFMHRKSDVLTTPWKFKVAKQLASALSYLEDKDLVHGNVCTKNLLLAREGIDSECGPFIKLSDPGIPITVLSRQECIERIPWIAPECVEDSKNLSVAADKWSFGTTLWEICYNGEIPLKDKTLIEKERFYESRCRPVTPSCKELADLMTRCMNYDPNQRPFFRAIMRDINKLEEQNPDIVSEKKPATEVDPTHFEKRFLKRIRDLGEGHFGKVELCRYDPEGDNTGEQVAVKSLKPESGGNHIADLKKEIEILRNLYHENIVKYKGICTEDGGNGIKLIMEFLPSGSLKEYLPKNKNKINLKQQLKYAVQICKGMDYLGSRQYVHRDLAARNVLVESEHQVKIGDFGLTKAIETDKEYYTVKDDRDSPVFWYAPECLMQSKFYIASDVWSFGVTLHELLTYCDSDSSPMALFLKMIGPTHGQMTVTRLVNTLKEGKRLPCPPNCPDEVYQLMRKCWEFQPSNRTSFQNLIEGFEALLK
Procedure: as §1, §2
In JAK1 reaction system, the concentration of ATP was 2 μM, and the concentration of JAK1 protein was 0.2 ng/μL.

JAK3 = target: T1, JAK3 (Homo sapiens, UniProt P52333); experiment: JAK kinase activity, homogeneous time-resolved fluorescence (JAK3 reaction system); settings: ATP 2 μM, JAK3 protein 0.04 ng/μL; read-out: JAK 3 activity
T1 sequence (P52333 1-1124): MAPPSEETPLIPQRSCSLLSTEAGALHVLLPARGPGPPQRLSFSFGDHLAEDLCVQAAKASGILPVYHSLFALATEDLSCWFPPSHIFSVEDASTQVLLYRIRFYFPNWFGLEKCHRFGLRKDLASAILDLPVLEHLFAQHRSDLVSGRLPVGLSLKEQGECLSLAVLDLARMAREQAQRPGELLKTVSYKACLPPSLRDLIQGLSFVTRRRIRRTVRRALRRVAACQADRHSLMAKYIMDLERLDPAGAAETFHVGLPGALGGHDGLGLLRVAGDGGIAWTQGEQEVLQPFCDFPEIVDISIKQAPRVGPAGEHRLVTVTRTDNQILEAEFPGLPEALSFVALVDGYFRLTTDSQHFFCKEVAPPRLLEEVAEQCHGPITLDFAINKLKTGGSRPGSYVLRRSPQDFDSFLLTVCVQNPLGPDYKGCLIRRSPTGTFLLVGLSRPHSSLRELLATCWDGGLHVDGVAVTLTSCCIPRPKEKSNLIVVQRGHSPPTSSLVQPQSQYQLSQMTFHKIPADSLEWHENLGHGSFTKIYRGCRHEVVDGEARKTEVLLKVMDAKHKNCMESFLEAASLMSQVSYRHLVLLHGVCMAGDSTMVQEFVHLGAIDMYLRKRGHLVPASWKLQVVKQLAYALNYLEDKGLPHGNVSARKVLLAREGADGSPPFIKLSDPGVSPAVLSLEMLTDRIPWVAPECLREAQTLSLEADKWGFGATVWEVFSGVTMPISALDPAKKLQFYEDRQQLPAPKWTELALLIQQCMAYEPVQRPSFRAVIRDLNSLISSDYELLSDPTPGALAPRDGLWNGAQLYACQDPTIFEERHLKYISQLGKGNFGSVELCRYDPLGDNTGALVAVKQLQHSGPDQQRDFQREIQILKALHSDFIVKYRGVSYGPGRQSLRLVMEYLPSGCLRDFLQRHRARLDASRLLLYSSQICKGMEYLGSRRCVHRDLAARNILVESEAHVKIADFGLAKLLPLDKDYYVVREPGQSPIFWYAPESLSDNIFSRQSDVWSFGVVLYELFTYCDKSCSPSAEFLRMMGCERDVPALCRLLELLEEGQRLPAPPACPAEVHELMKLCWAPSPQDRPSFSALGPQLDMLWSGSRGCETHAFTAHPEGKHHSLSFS
Procedure: as §1, §2
In JAK3 reaction system, the concentration of ATP was 2 μM, and the concentration of JAK3 protein was 0.04 ng/μL.

Chain of JAK2 (O60674 whole entry): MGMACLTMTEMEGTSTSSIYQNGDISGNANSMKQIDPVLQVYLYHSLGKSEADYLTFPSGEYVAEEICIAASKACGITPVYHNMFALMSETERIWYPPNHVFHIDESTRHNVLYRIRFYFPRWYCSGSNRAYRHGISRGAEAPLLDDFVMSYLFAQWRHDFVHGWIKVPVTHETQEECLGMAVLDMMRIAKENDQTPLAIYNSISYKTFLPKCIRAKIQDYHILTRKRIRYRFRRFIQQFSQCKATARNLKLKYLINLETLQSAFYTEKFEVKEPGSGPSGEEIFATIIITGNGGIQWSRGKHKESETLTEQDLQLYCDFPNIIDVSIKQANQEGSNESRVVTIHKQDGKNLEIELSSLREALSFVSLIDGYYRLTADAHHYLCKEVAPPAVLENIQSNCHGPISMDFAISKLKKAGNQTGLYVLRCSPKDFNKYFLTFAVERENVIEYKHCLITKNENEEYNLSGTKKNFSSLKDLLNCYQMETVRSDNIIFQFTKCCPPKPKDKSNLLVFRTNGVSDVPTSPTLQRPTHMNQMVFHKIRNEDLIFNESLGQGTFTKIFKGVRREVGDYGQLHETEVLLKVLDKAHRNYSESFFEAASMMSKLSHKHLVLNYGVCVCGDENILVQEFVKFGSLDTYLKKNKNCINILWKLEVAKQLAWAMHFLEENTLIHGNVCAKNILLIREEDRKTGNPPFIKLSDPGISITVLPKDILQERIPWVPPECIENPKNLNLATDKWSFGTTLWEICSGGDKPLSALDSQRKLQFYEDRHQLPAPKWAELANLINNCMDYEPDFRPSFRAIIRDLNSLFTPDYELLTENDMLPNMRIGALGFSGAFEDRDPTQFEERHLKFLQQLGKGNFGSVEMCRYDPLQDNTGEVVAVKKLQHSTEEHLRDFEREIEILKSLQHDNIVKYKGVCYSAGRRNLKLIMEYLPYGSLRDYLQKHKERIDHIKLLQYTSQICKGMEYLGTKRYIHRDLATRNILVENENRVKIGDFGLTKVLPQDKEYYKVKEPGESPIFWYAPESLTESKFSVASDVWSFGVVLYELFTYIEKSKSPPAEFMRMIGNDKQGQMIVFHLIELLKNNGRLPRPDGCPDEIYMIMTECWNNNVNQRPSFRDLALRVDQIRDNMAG

Structure (SMILES) | IC50 (JAK2) [µM] | IC50 (TYK2) [µM] | IC50 (JAK1) [µM] | IC50 (JAK3) [µM]
Cc1cnc2nc1NCCCCCNC(=O)c1ccc(cc1C(=O)Nc1ccccc1)-c1cnc(F)c(c1)N2 [Compound 42, 2^6-fluoro-4^5-methyl-12-oxo-N-phenyl-3,5,11-triaza-4(2,4)-pyrimidina-2(3,5)-pyridina-1(1,4)-benzenacyclododecaphane-1^3-formamide] | 1 to 10 | > 10 | 1 to 10 | 1 to 10
Cc1cnc2nc1NCCCCCNC(=O)c1ccc(cc1C(=O)NCc1ccccc1)-c1cnc(F)c(c1)N2 [Compound 41, N-benzyl-2^6-fluoro-4^5-methyl-12-oxo-3,5,11-triaza-4(2,4)-pyrimidina-2(3,5)-pyridina-1(1,4)-benzenacyclododecaphane-1^3-formamide] | 1 to 10 | > 10 | 1 to 10 | 1 to 10
Cc1cnc2nc1NCCCCCNC(=O)c1ccc(c(S(C)(=O)=O)c1)-c1cnc(F)c(c1)N2 [Compound 26, 2^6-fluoro-4^5-methyl-1^2-(methylsulfonyl)-3,5,11-triaza-4(2,4)-pyrimidina-2(3,5)-pyridina-1(1,4)-benzenacyclododecaphan-12-one] | 1 to 10 | > 10 | 1 to 10 | 1 to 10
Cc1cnc2nc1Nc1cccc(c1)CCNC(=O)c1c(F)cc(cc1F)-c1cnc(F)c(c1)N2 [Compound 33, 1^3,1^5,2^6-trifluoro-4^5-methyl-3,5,9-triaza-4(2,4)-pyrimidina-2(3,5)-pyridina-1(1,4),6(1,3)-dibenzenacyclodecaphan-10-one] | 0.101 to 1 | > 10 | 0.101 to 1 | 1 to 10
COc1cc2ccc1C(=O)NCCCCCNc1nc(ncc1C)Nc1cc-2cnc1F [Compound 8, 2^6-fluoro-1^3-methoxy-4^5-methyl-3,5,11-triaza-4(2,4)-pyrimidina-2(3,5)-pyridina-1(1,4)-benzenacyclododecaphan-12-one] | 1 to 10 | > 10 | 0.101 to 1 | 1 to 10
Cc1cnc2nc1Nc1cccc(c1)CCNC(=O)c1ccc(cc1S(C)(=O)=O)-c1cnc(F)c(c1)N2 [Compound 24, 2^6-fluoro-4^5-methyl-1^3-(methylsulfonyl)-3,5,9-triaza-4(2,4)-pyrimidina-2(3,5)-pyridina-1(1,4),6(1,3)-dibenzenacyclodecaphan-10-one] | < 0.01 | 0.101 to 1 | < 0.01 | 0.011 to 0.1
Cc1cnc2nc1Nc1cc(ccc1O)CCNC(=O)c1ccc(cc1)-c1cnc(F)c(c1)N2 [Compound 48, 2^6-fluoro-6^6-hydroxy-4^5-methyl-3,5,9-triaza-4(2,4)-pyrimidina-2(3,5)-pyridina-1-2,(1,4),6(1,3)-dibenzenacyclodecaphan-10-one] | 0.011 to 0.1 | 0.101 to 1 | 0.011 to 0.1 | 0.101 to 1
CNC(=O)c1cc2ccc1C(=O)NCCCCCNc1nc(ncc1C)Nc1cc-2cnc1F [Compound 40, 2^6-fluoro-N,4^5-dimethyl-12-oxo-3,5,11-triaza-4(2,4)-pyrimidina-2(3,5)-pyridina-1(1,4)-benzenacyclododecaphane-1^3-formamide] | 1 to 10 | > 10 | 0.101 to 1 | 1 to 10
Cc1cnc2nc1NCCCCCCCNC(=O)c1ccc(cc1F)-c1cnc(F)c(c1)N2 [Compound 12, I^3,2^6-difluoro-4^5-methyl-3,5,13-triaza-4(2,4)-pyrimidina-2(3,5)-pyridina-1(1,4)-benzenacydododecaphan-12-one] | 0.101 to 1 | 1 to 10 | 0.101 to 1 | 1 to 10
Cc1cnc2nc1Nc1cc(F)cc(c1)CCNC(=O)c1ccc(cc1S(C)(=O)=O)-c1cnc(F)c(c1)N2 [Compound 46, 2^6,6^5-difluoro-4^5-methyl-1^3(methylsulfonyl)-3,5,9-triaza-4(2,4)-pyrimidina-2(3,5)-pyridina-1(1,4),6(1,3)-dibenzenacyclodecaphan-10-one] | < 0.01 | 0.101 to 1 | < 0.01 | 0.011 to 0.1
Cc1cc2ccc1C(=O)NCCCCCNc1nc(ncc1C)Nc1cc-2cnc1F [Compound 11, 2^6-fluoro-l^3,4^5-dimethyl-3,5,11-triaza-4(2,4)-pyrimidina-2(3,5)-pyridina-1(1,4)-benzenacyclododecaphan-12-one] | 0.101 to 1 | 1 to 10 | 0.101 to 1 | 1 to 10

Other lines, results leading:

IC50 (JAK2) [µM] | IC50 (TYK2) [µM] | IC50 (JAK1) [µM] | IC50 (JAK3) [µM] | Structure (SMILES)
< 0.01 | 0.101 to 1 | < 0.01 | 0.101 to 1 | Cc1cnc2nc1Nc1cccc(c1)CCCNC(=O)c1ccc(cc1F)-c1cnc(F)c(c1)N2 [Compound 23, 1^3,2^6-difluoro-4^5-methyl-3,5,10-triaza-4(2,4)-pyrimidina-2(3,5)-pyridina-1(1,4),6(1,3)-dibenzenacycloundecaphan-11-one]
0.101 to 1 | 1 to 10 | 0.011 to 0.1 | 0.101 to 1 | Cc1cnc2nc1Nc1cccc(c1)COCCCC(=O)N1CCN(CC1)c1cnc(F)c(c1)N2 [Compound 15, 2^6-fluoro-4^5-methyl-8-oxa-3,5-diaza-4(2,4)-pyrimidina-1(1,4)-piperazina-2(3,5)-pyridina-6(1,3)-benzenacyclododecaphan-12-one]
< 0.01 | 0.101 to 1 | < 0.01 | 0.011 to 0.1 | COC(=O)c1cc2ccc1C(=O)NCCCc1cccc(c1)Nc1nc(ncc1C)Nc1cc-2cnc1F [Compound 36, Methyl 2^6-fluoro-4^5-methyl-11-oxo-3,5,10-triaza-4(2,4)-pyrimidina-2(3,5)-pyridina-1(1,4),6(1,3)-dibenzenacycloundecaphan-1^3-carboxylate]
< 0.01 | 0.101 to 1 | < 0.01 | 0.011 to 0.1 | Cc1cnc2nc1Nc1cccc(c1)CCCNC(=O)c1ccc(cc1S(C)(=O)=O)-c1cnc(F)c(c1)N2 [Compound 25, 2^6-fluoro-4^5-methyl-1^3-(methylsulfonyl)-3,5,10-triaza-4(2,4)-pyrimidina-2(3,5)-pyridina-1(1,4),6(1,3)-dibenzenacycloundecaphan-11-one]
0.011 to 0.1 | 0.101 to 1 | < 0.01 | 0.101 to 1 | Cc1cnc2nc1Nc1cccc(c1)CCCC(=O)N1CCN(CC1)c1cnc(F)c(c1)N2 [Compound 35, 2^6-fluoro-4^5-methyl-3,5-diaza-4(2,4)-pyrimidina-1(1,4)-piperazina-2(3,5)-pyridina-6(1,3)-benzenacyclodecaphan-10-one]
0.011 to 0.1 | 1 to 10 | 0.011 to 0.1 | 0.101 to 1 | Cc1cnc2nc1Nc1cccc(c1)CCCNC(=O)c1ccc(cc1C(=O)O)-c1cnc(F)c(c1)N2 [Compound 37, 2^6-fluoro-4^5-methyl-11-oxo-3,5,10-triaza-4(2,4)-pyrimidina-2(3,5)-pyridina-1(1,4),6(1,3)-dibenzenacycloundecaphan-1^3 - formic acid]
